From PubChem BioAssay (NCI)
“And” between values parts separate entries of the source, which are not always exact repeats. Equal entries are not always repeated.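 Each compound was tested at five concentrations against cells in 96-well plates for 48 hours. GI50 = concentration required for 50% inhibition of growth. TGI marks complete inhibition of growth.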

Legend:
Assay in all cases: inhibition of tumour cell growth, NCI panel, 48 h
[1] = system: A498 renal
[2] = system: BT-549 breast
[3] = system: CCRF-CEM leukemia
[4] = system: HS 578T breast
[5] = system: MALME-3M melanoma
[6] = system: OVCAR-3 ovarian
[7] = system: PC-3 prostate
[8] = system: RPMI-8226 leukemia
[9] = system: SF-539 CNS
[10] = system: SN12C renal

Row | SMILES | GI50 [1] [µM] | TGI [1] | GI50 [2] [µM] | TGI [2] | GI50 [3] [µM] | TGI [3] [µM] | GI50 [4] [µM] | TGI [4] | GI50 [5] [µM] | TGI [5] | GI50 [6] [µM] | TGI [6] | GI50 [7] [µM] | TGI [7] | GI50 [8] [µM] | TGI [8] [µM] | GI50 [9] [µM] | TGI [9] [µM] | GI50 [10] [µM] | TGI [10] [µM]
1 | COc1ccc(NC(=O)Nc2n[nH]c3ccccc23)cc1 | > 100 | > 100 µM | > 100 | > 100 µM | 5.96 | > 100 | > 100 | > 100 µM | > 100 | > 100 µM | > 100 | > 100 µM | > 100 | > 100 µM | > 100 | > 100 | > 100 | > 100 | > 100 | > 100
2 | Cc1cc([C@@H](C)Nc2ccccc2C(=O)O)c2nc(N3CCOCC3)cc(=O)n2c1 | 0.0166 | 0.0945 µM | 1.17 | > 10 µM | > 10 | > 10 | 0.122 | 8.14 µM | > 10 | > 10 µM | 6.02 | > 10 µM | 3.73 | > 10 µM | > 10 | > 10 | 7.11 | > 10 | > 10 | > 10
3 | COc1cc(/C=C\[N+](=O)[O-])ccc1O | 12.3 | 24.8 µM | 2.39 | 6.51 µM | 2.25 | 7.23 | 4.71 | 28.8 µM | 1.91 | 4.91 µM | 1.9 | 3.36 µM | 8.63 | 21.6 µM | 2.2 | 6.11 | 2.03 | 5.18 | 2.49 | 7.74
4 | O=C(Nc1cccc(-n2ccc3c(NC(=O)c4ccccc4)nccc32)c1)c1cccc(C(F)(F)F)c1 | 0.02 | 0.0772 µM | 0.127 | 1.3 µM | 0.0358 | 4.13 | 0.0305 | 3.28 µM | 0.0464 | 10.4 µM | 0.0205 | 0.0463 µM | 0.0434 | > 100 µM | 0.0327 | 1.17 | 0.0314 | 2.14 | 0.0591 | > 59.3
5 | CC1(C)N=C(N)N=C(N)N1c1ccc(CCCCc2ccc(S(=O)(=O)F)cc2)cc1 | 3.81 | 87.6 µM | 7.97 | 20.9 µM | 0.561 | 19.7 | 13.2 | 46 µM | 12.2 | 32.4 µM | 3.88 | 16.4 µM | 0.094 | 23.5 µM | 0.522 | 10.8 | 0.458 | 11.6 | 1.2 | 17.7
6 | N#Cc1c(NC(=O)c2cccc(C(F)(F)F)c2)sc2c1CCC(=O)C2 | 1.71 | 5.5 µM | 0.419 | 2.06 µM | 0.262 | > 100 | 0.542 | 3.77 µM | 0.326 | 1.12 µM | 0.418 | 1.52 µM | 0.292 | 1.41 µM | 0.239 | 0.869 | 0.329 | 1.23 | 0.851 | 4.05
7 | Cc1cc2nc3c4cc(Cl)ccc4n(CCN(C)C)c3nc2cc1C | 1.29 | 2.63 µM | 2.53 | 8.19 µM | 1.22 | 4.63 | 2.35 | 6.99 µM | 1.72 | 3.33 µM | 1.92 | 4.76 µM | 1.65 | 4.74 µM | 1.55 | 4.12 | 1.55 | 2.94 | 1.61 | 8.45
8 | C=C1C(=O)O[C@H]2[C@H]1CC/C(CNC(=O)c1c[nH]c3ccc(F)cc13)=C\CC[C@@]1(C)O[C@@H]21 | 1.99 | 11.9 µM | 1.19 | 2.7 µM | 0.359 | 1.83 | 2.65 | 13.1 µM | 1.41 | 3.3 µM | 0.486 | 1.77 µM | 2.91 | 12.1 µM | 1.14 | 3.72 | 1.37 | 2.81 | 1.98 | 5.42
9 | CN=C(N)N/N=C(\c1ccccc1)c1ccc(Br)cc1 | 0.232 | 1.01 µM | 1.5 | 12.7 µM | 0.32 | 4.66 | 0.38 | 5.37 µM | 1.13 | 4.24 µM | 0.29 | 2.55 µM | 0.402 | 11 µM | 0.441 | 3.13 | 0.218 | 0.537 | 0.451 | 6.27
10 | NC(CO)Cc1cnc[nH]1 (centres undefined) | > 100 | > 100 µM |  | > 100 µM | > 100 | > 100 | > 100 | > 100 µM | > 100 | > 100 µM | > 100 | > 100 µM | > 100 | > 100 µM | > 100 | > 100 | > 100 | > 100 | > 100 | > 100
11 | COC(=O)C(=O)CC(=O)CCn1ncc(Cl)c(Cl)c1=O |  | 49.6 µM | 14.4 | 27.7 µM |  | 9.72 | 27.3 | 87.5 µM |  | 21.3 µM |  | 17.8 µM | 14.5 | 37.2 µM |  | 52.6 |  | 35.2 |  | 29.9
12 | C[C@@H]1CC[C@@H]2[C@@H]1[C@H](OC(=O)/C=C/c1ccccc1)[C@]1(c3ccccc3)C[C@@H](OC(=O)CO)[C@@]2(C)O1 | 0.189 | 0.585 µM | 0.406 | 17.7 µM | 20.8 | 84.2 | 0.112 | 0.708 µM | 16.5 | 31.4 µM | 13.3 | 27 µM | 3.67 | 18.9 µM | 10.3 | 38.9 | 14.6 | 28.3 | 0.538 | 22.4
13 | O=C(Nc1nc2ccccc2s1)OCC(F)(F)F | > 100 | > 100 µM | > 100 | > 100 µM | > 100 | > 100 | > 100 | > 100 µM | > 100 | > 100 µM | > 100 | > 100 µM | > 100 | > 100 µM | > 100 | > 100 | > 100 | > 100 | > 100 | > 100
14 | Cc1ccc2c(C(C[N+](=O)[O-])c3cccs3)c(-c3ccccc3)[nH]c2c1 (centres undefined) | 1.05 | 4.34 µM | 1.92 | 7.29 µM | 1.38 | > 33.3 | 1.57 | 9.53 µM | 1.55 | 6.12 µM | 1.24 | 4.75 µM | 2.46 | 16.1 µM | 2.05 | 23.7 | 1.54 | 6.21 | 1.89 | 7.01
15 | Cc1nn(-c2ccc(F)cc2)c2ncnc(Nc3ccc(NC(=O)Nc4ccc(Cl)c(C(F)(F)F)c4)cc3)c12 | 2.6 | 7.93 µM | 2.39 | 8.48 µM | 1.57 | 13.2 | 2.66 | 9.47 µM | 1.76 | 4.21 µM | 2.06 | 5.79 µM | 1.03 | 3.98 µM | 1.71 | 9.54 | 1.46 | 3.08 | 2.07 | 5.56
16 | COc1ccc(C(=O)Nc2ncc(Cc3ccc(Cl)cc3)s2)cc1 | 0.0216 | 0.0848 µM | 1 | > 100 µM | 0.046 | > 100 | 0.0407 | > 77 µM | 0.087 | > 100 µM | 0.0327 | 0.159 µM | 0.0528 | > 100 µM | 0.0375 |  | 0.047 | 0.516 | 0.0946 | > 100
17 | O=C(c1cccs1)c1c(C(F)(F)F)n([O-])c2ccccc2[n+]1=O | 0.79 | 2.4 µM | 0.908 | 2.37 µM | 6.69 | 13.1 | 1.03 | 2.91 µM | 0.85 | 2.53 µM | 0.744 | 1.67 µM | 0.448 | 2.24 µM | 0.613 | 10.5 | 1.11 | 3.42 | 0.737 | 1.67
18 | CCn1c(-c2nonc2N)nc2c(C#CCN)ncc(OCCCN)c21 | > 18.6 | > 25 µM | > 25 | > 25 µM | > 25 | > 25 | > 25 | > 25 µM | > 25 | > 25 µM | > 25 | > 25 µM | > 25 | > 25 µM | > 25 | > 25 | > 25 | > 25 | > 25 | > 25
19 | Clc1ccccc1C(c1ccccc1)(c1ccccc1)n1ccnc1 | 2.15 | 6.02 µM and 43.8 µM | 2.54 | 6.87 µM and 20.6 µM |  | 31.4 | 3.45 | 19.7 µM and 35.2 µM | 1.74 | 7.24 µM and 16.9 µM | 1.78 | 4.41 µM and 17.6 µM | 1.67 | 12.4 µM and 20.2 µM |  | > 62.7 | 3.22 | 11.1 | 2.63 | 13.3
20 | COc1cc2ncn(-c3cc(OCc4ccccc4Cl)c(C(N)=O)s3)c2cc1OC | 0.117 | 3.21 µM | 1.41 | > 17 µM | 0.0781 | > 10.6 | 0.609 | 5.77 µM | > 25 | > 25 µM | 0.0867 | 1.99 µM | 1 | > 25 µM | 0.341 | > 25 | 0.249 | 4.31 | 1.48 | > 25
21 | O=C1/C(=C/c2ccc(F)cc2)CCOc2ccc([N+](=O)[O-])cc21 | 17.4 | 35 µM | 3 | 7.82 µM | 0.761 | 3.47 | 4.94 | 47.1 µM | 2.27 | 5.79 µM | 2.33 | 5.61 µM | 0.306 | 1.64 µM | 0.862 | 3.14 | 2.52 | 5.99 | 6.97 | 21
22 | CSc1nc(SC)c2c(CN=[N+]=[N-])c(Br)n(Cc3ccccc3)c2n1 |  | > 100 µM |  | > 100 µM |  | > 100 |  | > 100 µM |  | > 100 µM |  | > 100 µM |  | > 100 µM |  | > 100 |  | > 100 |  | > 100
23 | O=C(CSc1nc2ccc([N+](=O)[O-])cc2[nH]1)Nc1ccc(F)c(Cl)c1 | 1.11 | 3.6 µM | 2.44 | 9.34 µM | 2.75 | > 45.7 | 2.45 | 9.63 µM | 1.75 | 6.96 µM | 2 | 10.1 µM | 2.57 | 11.6 µM | 1.39 | > 21.5 | 3 | 11.4 | 2.36 | 10.7
24 | CN(C)CC(=O)N1CCC(c2ccc(NC(=O)c3ncc(C#N)[nH]3)c(C3=CCCCC3)c2)CC1 | 9.71 | 22.4 µM | 4.52 | 16.1 µM | 7.26 | 28.5 | 2.18 | 12.4 µM | 4.3 | 16.1 µM | 15.7 | 29.6 µM | 8.38 | 25.5 µM | 8.76 | 34.6 | 3.5 | 15 | 2.74 | 16.9
25 | Cc1ccn2c3c(c(C(=O)O)c2c1)C(=O)c1ccccc1C3=O | 5.01 | 40.5 µM | 3.9 | 53.6 µM | > 100 | > 100 | 3.71 | 29.8 µM | 0.48 | 1.92 µM | 2.9 | > 70.3 µM | > 100 | > 100 µM | > 100 | > 100 | 4.46 | 64.7 | 7.97 | > 100
